One compound from patent US9738610B2, “Indazole derivatives and uses thereof” (Whitehead Institute for Biomedical Research, priority 2012, dated 2017) can be followed below.

Each structure is given as a SMILES string. Like-named read-outs stand apart in the source and are kept apart here.

One data set in a line: Plasma stability. Particulars: % remaining in human plasma after a 5-hour incubation.
Data set [1] concerns NIH-3T3 mammalian fibroblasts. The experiment in a line: Counterscreen mammalian cell toxicity assay (fibroblast toxicity). Format: cell-based, murine. Particulars: for IC50: Mus musculus.
The next data set relates to C. albicans CaCi-8. The experiment in a line: microbe, parasite or virus in culture. In kind it is cell-based, Candida albicans. The settings on record: Candida albicans. The method, boiled down: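 Hits tested for chemosensitization of the fluconazole-resistant CaCi-8 strain, for inherent antifungal activity without fluconazole, and for mammalian fibroblast toxicity by fluorescence reporter. Geldanamycin plus fluconazole served as positive control; a Saccharomyces assay assigned mechanism to Hsp90, calcineurin or other pathways.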

The next data set in a line: Plasma protein binding. Particulars: human, plasma.
A short description of another data set: PBS stability assay. In kind it is physicochemical. The settings on record: 48-hour incubation, 23° C.
In data set [2] the test system is C. albicans CaCi-2. The data set is described as follows: CaCi-2 growth inhibition in the presence of 8 μg/ml fluconazole (Alamar Blue). Format: cell-based, Candida albicans. The settings on record: Candida albicans.
Data set [3] has as its system C. albicans CaCi-2. The data set is described as follows: Secondary single-agent (no-fluconazole) activity assay. Particulars: for IC50: Candida albicans. Format: cell-based, Candida albicans. The method, boiled down:
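C. albicans CaCi-2 in RPMI synthetic defined medium with 1% Pen/Strep, starting OD600 0.00015, exposed to compound alone (no fluconazole) for 48 h at 37 °C without agitation. Growth read as Alamar Blue fluorescence (1:200 final) after 2 h at room temperature.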

A short description of a further data set: PBS solubility. Particulars: PBS, aqueous buffer.

A word on the fraction unbound: it is the share of the substance not bound to proteins or other matrix. Read a high fraction unbound as weak binding. As a reminder, the solubility is how much of the substance goes into solution per volume. Take `COC(=O)Cn1nc(-c2cccc(OC)c2)c2ccccc21` [Compound I-4, methyl 2-(3-(3-methoxyphenyl)-1H-indazol-1-yl)acetate]: in the data set “Plasma stability”, the “Plasma Stability” value is listed as “approximately 3%”. In addition, the “Dose-dependent activity against murine 3T3 fibroblasts” value in data set [1] was “inactive”. The “Mammalian fibroblast IC50 relative to CaCi-2 IC50 with fluconazole” value in data set [1] was >59-fold. Besides, the IC50 was greater than 26000 nM in data set [1] (NIH3T3, read-out: Fibroblast toxicity IC50 (nM)); greater than 26000 nM in data set [1] (NIH3T3, read-out: IC50 in the mammalian fibroblast assay); 1200 nM in the data set with C. albicans CaCi-8 (CACI8, read-out: CaCi-8 IC50 with 8 μg/ml fluconazole, Table 12); 1210 nM in the data set with C. albicans CaCi-8 (CACI8, read-out: CaCi-8 growth inhibition IC50 (nM), in the presence of fluconazole); 440 nM in the data set on C. albicans CaCi-2 [2] (CACI2, read-out: CaCi-2 IC50 with 8 μg/ml fluconazole); 440 nM in the data set with C. albicans CaCi-2 [2] (CACI2, read-out: CaCi-2 growth inhibition IC50 (nM)). In addition, the IC50 with C. albicans CaCi-2 [3] (CACI2, read-out: Activity without fluconazole IC50 (nM)) is greater than 26000 nM; in the data set with C. albicans CaCi-2 [3] (CACI2, read-out: CaCi-2 IC50 without fluconazole) it was greater than 26000 nM. Besides, the “Fold Selective* (Anti-target IC50/Target IC50)” value (in data set [1] (fibroblast toxicity vs CaCi-2 growth inhibition); with C. albicans CaCi-2 [3] (activity without fluconazole vs CaCi-2 growth inhibition with fluconazole)) was 59 each time. The fraction unbound in “Plasma protein binding” is 0.05. Moreover, the “Stability in PBS solution, remaining” value in “PBS stability assay” is reported as greater than 99%. The “Dose-dependent activity against C. albicans CaCi-2” value in the data set on C. albicans CaCi-2 [3] is “inactive”. Besides, the solubility in the data set “PBS solubility” was less than 1 µM.
